Values quoted from earlier work, collected in the CATMoS acute toxicity set (Mansouri et al. 2021).
Several values for one entry are separate records, joined by “and”; a condition that tells them apart may be missing. Equal entries are not always repeated.

Assay: rat acute oral toxicity
Conditions: in vivo

Compared with CC(C)Nc1ccccc1, CC(Cc1ccccc1)NN (stereo not given) is 16-fold lower in LD50: 560 mg/kg for the first, 34 mg/kg for the second.

Compared with O=C(c1ccc(O)cc1O)c1ccc(O)cc1O, O=C(O)Cc1ccccc1Oc1ccc(Cl)cc1Cl is 1.9-fold higher in LD50: 1220 mg/kg for the first, 2280 mg/kg for the second.

First: COC(=O)c1cccc(C)c1O
Second: Cc1ccccc1NCCO
The LD50 of the first is 1.7-fold higher: 3840 mg/kg for the first, 2200 mg/kg for the second.

Compared with F[Si](F)(F)c1ccccc1, O=COCCc1ccccc1 is 10-fold higher in LD50: 310 mg/kg for the first, 3220 mg/kg for the second.

First: CCCCOC(=O)CC(SP(=O)(OC)OC)C(=O)OCCCC (stereo not given)
Second: CCCCNC1(P(=O)(OCCCC)OCCCC)CCCCC1
The LD50 of the first is 5.8-fold lower: 515 mg/kg for the first, 3000 mg/kg for the second.

O=[N+]([O-])c1cc([N+](=O)[O-])c(Nc2cc(C(F)(F)F)ccc2Cl)c(C(F)(F)F)c1 and O=[N+]([O-])c1ccc(NS(=O)(=O)c2ccc(Cl)c(C(F)(F)F)c2)c(Cl)c1 are within 1.5-fold of each other in LD50: 94 mg/kg for the first, 132 mg/kg for the second.

CC(Cl)(Cl)C(=O)OCCOc1cc(Cl)c(Cl)cc1Cl and CN1C(=O)CCS(=O)(=O)C1c1ccc(Cl)c(Cl)c1 (stereo not given) are within 1.5-fold of each other in LD50: 1000 mg/kg for the first, 1050 mg/kg for the second.

Going from CCCCC(CC)CNCC(C)(N)CNCC(CC)CCCC (stereo not given) to CCCCCCCCCCCC(=O)N(CCO)CCO, the LD50 rises from 800 mg/kg to 2700 mg/kg (3.4-fold).

Nc1ccc(Oc2ccc(C(c3ccc(Oc4ccc(N)cc4)cc3)(C(F)(F)F)C(F)(F)F)cc2)cc1 and Nc1ccc2ccc3cccc4ccc1c2c34 are within 1.5-fold of each other in LD50: 1340 mg/kg for the first, 1070 mg/kg for the second.

CCOc1ccc(NCCC#N)cc1 and c1cc(OCC2CO2)ccc1CC1CO1 (stereo not given) are within 1.5-fold of each other in LD50: 4600 mg/kg for the first, 4290 mg/kg for the second.

Going from CNC(=O)ON=C1[C@@H](Cl)[C@@H]2C[C@H](C#N)[C@H]1C2 (relative stereo) to CCC1OC(C)SC1=NOC(=O)NC (stereo not given), the LD50 falls from 25 mg/kg to 15 mg/kg (1.7-fold).

Going from O=P(CCn1c(Cc2ccccc2)nc2ccccc21)(OCCCl)OCCCl to CCCC1C(=O)N(c2ccccc2)N(c2ccccc2)C1=O, the LD50 falls from 6200 mg/kg to 529 mg/kg (12-fold).

First: Cc1cc(C)c(C2C(=O)c3ccccc3C2=O)c(C)c1
Second: CN(C)CCC=C1c2ccccc2CCc2ccccc21
The LD50 of the first is 3.1-fold higher: 1000 mg/kg for the first, 320 mg/kg for the second.

First: CC(C)(C)CCCCCCC(=O)O
Second: CC(C)(C)S
The LD50 of the first is 2.3-fold lower: 2070 mg/kg for the first, 4730 mg/kg for the second.

Going from CCOC(=O)C=[N+]=[N-] to CCOP(=S)(OCC)OC(C)=CC(=O)OC, the LD50 falls from 400 mg/kg to 0.14 mg/kg (2900-fold).

Going from COP(=S)(OC)Oc1ccc(SC)c(C)c1 to C=CCc1ccc(OC(C)=O)c(OC)c1, the LD50 rises from 180 mg/kg to 1670 mg/kg (9.3-fold).

CC(C)c1ccc(C=O)cc1 and CC(C=O)Cc1ccc(C(C)(C)C)cc1 (stereo not given) are the same in LD50: 1390 mg/kg for the first, 1390 mg/kg for the second.

Going from CCC(C(=O)O)c1ccc(N2Cc3ccccc3C2=O)cc1 (stereo not given) to CC(C)=CCC1C(=O)N(c2ccccc2)N(c2ccccc2)C1=O, the LD50 rises from 373 mg/kg to 1340 mg/kg (3.6-fold).

Going from O=[N+]([O-])c1cc2[nH]c(C(F)(F)F)nc2c(Cl)c1Cl to Cc1c(Cl)c(Br)cc2[nH]c(C(F)(F)F)nc12, the LD50 falls from 55 mg/kg to 30 mg/kg (1.8-fold).

Compared with NC(=S)Nc1cccc(Cl)c1, O=S(=O)(O)c1ccccc1O is 76-fold higher in LD50: 25 mg/kg for the first, 1900 mg/kg for the second.

CN1C(=O)CCc2cc(C(=O)CCN3CCN(c4ccccc4)CC3)ccc21 and Cc1cccc(N2CCN(CCCCN3C(=O)CNC3=O)CC2)c1 are within 1.5-fold of each other in LD50: 500 mg/kg for the first, 383 mg/kg for the second.

Going from O=C(O)/C=C/C(=O)O to CC(C)C(=O)OC(=O)C(C)C, the LD50 rises from 3850 mg/kg to 7700 mg/kg (2-fold).

Going from CC(C=O)CCC(C)(O)C=O (stereo not given) to CC(=O)OC(C)C(Cl)(Cl)Cl (stereo not given), the LD50 falls from 5890 mg/kg to 900 mg/kg (6.5-fold).

Compared with Oc1ccc(-c2ccccc2)cc1CN1CCOCC1, c1ccc2c(C(CCN3CCOCC3)CCN3CCOCC3)cccc2c1 is 28-fold higher in LD50: 25 mg/kg for the first, 708 mg/kg for the second.

Compared with CN(C)N=Nc1ccc(C(=O)O)cc1, O=C(O)CSc1cccc2cccc(CCl)c12 is 7.8-fold higher in LD50: 320 mg/kg for the first, 2500 mg/kg for the second.

First: C=C(C)CN(CC)c1c([N+](=O)[O-])cc(C(F)(F)F)cc1[N+](=O)[O-]
Second: O=NN(CC(F)(F)F)CC(F)(F)F
The LD50 of the first is 33-fold higher: 10000 mg/kg for the first, 300 mg/kg for the second.

First: CC1=C[C@H]2O[C@@H]3[C@H](O)[C@@H](O)[C@](C)([C@@]2(CO)[C@H](O)C1=O)[C@]31CO1
Second: CC[C@@H](C(=O)[C@@H](C)[C@@H](O)[C@H](C)CCc1ccc(C)c(O)c1C(=O)O)[C@H]1O[C@](CC)([C@H]2CC[C@](O)(CC)[C@H](C)O2)C[C@@H]1C
The LD50 of the first is 6.3-fold lower: 19.5 mg/kg for the first, 122 mg/kg for the second.

Compared with O=C(C1CCCCC1)N1CC(=O)N2CCc3ccccc3C2C1 (stereo not given), CN1CC[C@@]23CCCC[C@@H]2[C@@H]1Cc1ccc(O)cc13 is 2.6-fold lower in LD50: 2840 mg/kg for the first, 1100 mg/kg for the second.

First: CCCCC(O)(Cn1cncn1)c1ccc(Cl)cc1Cl (stereo not given)
Second: C#CCN1C(=O)CN=C(c2ccccc2)c2cc(Cl)ccc21
The LD50 of the first is 2.7-fold lower: 2190 mg/kg for the first, 5820 mg/kg for the second.

Compared with CC(C)COC(=O)CCc1ccco1, CCC(OC(C)=O)C(CC(C)NC)(c1ccccc1)c1ccccc1 (stereo not given) is 44-fold lower in LD50: 1950 mg/kg for the first, 44 mg/kg for the second.

Compared with COCNC(=O)CSP(=S)(OC)OC, CCOP(=S)(OCC)SCCl is 86-fold lower in LD50: 600 mg/kg for the first, 7 mg/kg for the second.

Going from Cn1c([N+](=O)[O-])cnc1/C=C/c1ccnc(N)n1 to CN1CCCCC1CCN1c2ccccc2Sc2ccc(S(C)=O)cc21 (stereo not given), the LD50 falls from 7600 mg/kg to 644 mg/kg (12-fold).

Going from O=C(C(Cl)Cl)C(Cl)(Cl)Cl to COc1ccc(CCNCC(O)COc2ccc(OCC(C)=O)c3c2CCC(=O)N3)cc1OC (stereo not given), the LD50 rises from 200 mg/kg to 1260 mg/kg (6.3-fold).

CC(C)(C)CC(C)(C)SSSSCC(C)(CC(C)(C)C)SSSSC(C)(C)CC(C)(C)C (stereo not given) and CCOC1CC(C)C=CO1 (stereo not given) are within 1.5-fold of each other in LD50: 3640 mg/kg for the first, 3400 mg/kg for the second.

In the case of Cc1ncsc1C, the LD50 is listed as 960 mg/kg.

For S=C(S)NCCNC(=S)S, the LD50 is listed as 1850 mg/kg and 2850 mg/kg.
